Reference: patent publication US5763673A, “Diarylheptanoide derivative and pharmaceutical composition comprising the same” (Kabushiki Kaisha Yakult Honsha, priority 1994, dated 1998)

How the values were obtained:
[1] = system: 5-lipoxygenase; settings: background, as reported; cited from earlier work
[2] = system: TPA induced edematization in ears; assay: Ear edema induction test with TPA (12-O-tetradecanoylphorbol-13-acetate); type: in vivo, ICR male mouse; settings: 0.5 mg/ear; for Rate of inhibition (%): 4 h after TPA, relative to rate of edematization of control group taken as 100; for Rate of edematization (%): both sides of right ear, 4 h after TPA (10 μl of 40 μg/ml), control group 161.1
Method: Four hours after the application of TPA, the center of right and left ears was cut out with a punch with a diameter of 6.5 mm to measure the weights. The rate of edematization of ears was calculated according to the following formula: [formula] The rate of edema enlargement inhibition was determined taking the rate of edematization of the control group to which no compound was applied as 100.

[3] = system: ears of mice; assay: Toxicity on application to ears of mice; type: in vivo; settings: 5 mg/ear, 10 times the effective concentration
[4] = system: 5-lipoxygenase; assay: 5-Lipoxygenase inhibiting activity (5-HETE production); type: biochemical, rat; settings: RBL-1 5-lipoxygenase; 5-HETE by HPLC; values only in FIG. 1
Method: A sample of 5-lipoxygenase was prepared from basophilic leukemia cells of rat (RBL-1). First, the RBL-1 was cultured in an MEM medium (manufactured by Nissui Pharmaceutical Co.) containing 0.0292% of L-glutamine and 10% of FCS under conditions of 5% CO2 and at 37° C. for 3 days. After culture, the cells were collected by centrifuge (1000 rpm, 10 min., 4° C.) and washed twice with Dulbeccol's PBS (-) (manufactured by Nissui Pharmaceutical Co.) . The cells were suspended in 50 ml of Tris-HCl buffer (pH 7.4) at a concentration of 7.5×10^7 cells/ml. The cell suspension was ultrasonically treated in an ice bath and centrifuged (1300 rpm, 30 min., 4° C.) to obtain a 5- lipoxygenase sample as supernatant.
76 μl of 50 mM Tris-HCl buffer (pH 7.4) containing 2.56 mM of CaCl2 and 2.56 mM of ATP and 20 μl of 5-lipoxygenase sample prepared above were added to 2μl of a solution containing a prescribed amount of the diarylheptanoide derivative (1) prepared in Example 1 in DSMO. The mixture was incubated at 37° C. […] The amount of 5-HETE in the supernatant was measured by HPLC (column: Nova-pak 5C18; eluant: a 60:40 acetonitrile:0.05 M KH2 PO4 solution with 5 mM trihexyl bromide added; flow rate: 0.8 ml/min.; wavelength: 235 nm). The amount of 5-HETE produced was calculated from the peak area of the 5-HETE. […]

Structure (SMILES)	5-lipoxygenase inhibiting activity (in words) [1]	Rate of inhibition (%) [2] [%]	Rate of edematization (%) [2] [%]	toxicity (in words) [3]	effect compared with comparative compound (6) (in words) [2]	effect for inhibiting TPA induced edematization in ears (in words) [2]	5-lipoxygenase inhibiting effect (in words) [4]
O=C(C=Cc1ccc(O)c(O)c1)CCCCc1ccccc1 [(6), 1-(3,4-dihydroxyphenyl)-7-phenyl-1-heptene-3-one, reference compound]	most strong 5-lipoxygenase inhibiting action	84.5	24.9				
COc1cc(C=CC(=O)CCCCc2ccccc2)cc(OC)c1O [Compound (1), 1-(3,5-dimethoxy-4-hydroxyphenyl)-7-phenyl-1-heptene-3-one]		96.1	6.3	No toxicity was exhibited	stronger than that of the comparative compound	strong effect for inhibiting TPA induced edematization in ears	strong 5-lipoxygenase inhibiting effect
COc1cc(/C=C/C(=O)CCCCc2ccccc2)ccc1O [Yakuchinone-B]	exhibiting a 5-lipoxygenase inhibiting activity						
COc1cc(CCC(=O)CCCCc2ccccc2)ccc1O [Yakuchinone-A]	exhibiting a 5-lipoxygenase inhibiting activity						
